Source: patent publication US10227331B2 (priority 2015, dated 2019)

Key:
NDM-1 = NDM-1 (Klebsiella pneumoniae, UniProt C7C422); test: biochemical; assay type: biochemical; settings: CCF2-FA substrate, 2 hours at 25° C; read-out: NDM-1 IC50
Procedure, shortened: (§1)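 Inhibitor was mixed with the metallo-β-lactamase and CCF2-FA. After 2 hours at 25° C, fluorescence of the coumarin–fluorescein cephalosporin substrate was read. IC50 was calculated with a 4-parameter fit.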

IMP-1 = IMP-1 (Serratia marcescens, UniProt P52699); test: biochemical; assay type: biochemical; settings: CCF2-FA substrate, 2 hours at 25° C; read-out: IMP-1 IC50
Procedure, shortened: as §1

[1] = test system: P. aeruginosa expressing IMP-1, efflux− (MB9799); test: Efflux: concentration of MBL inhibitor which restores susceptibility to imipenem; assay type: cell-based, Pseudomonas aeruginosa; settings: imipenem at 2 μg/mL, in the presence of a class A, C, D serine β-lactamase inhibitor closely related to relebactam
From the text: (§2) The strain background is Pseudomonas aeruginosa PAO1.

VIM-1 = VIM-1 (Pseudomonas aeruginosa (strain ATCC 15692 / DSM 22644 / CIP 104116 / JCM 14847 / LMG 12228 / 1C / PRS 101 / PAO1), UniProt A0A0F7KYQ8); test: biochemical; settings: CCF2-FA substrate, 2 hours at 25° C
Procedure, shortened: as §1

[2] = test system: P. aeruginosa expressing IMP-1, efflux+ (MB9798); assay type: cell-based, Pseudomonas aeruginosa; settings: for P. aeruginosa expressing IMP-1, efflux+ (MB9798) MITC95: imipenem at 2 μg/mL, in the presence of a class A, C, D serine β-lactamase inhibitor closely related to relebactam; for Efflux ratio: ratio MITC95 PA_9798/MITC95 PA_9799
From the text: as §2

[3] = test system: Escherichia coli expressing NDM-1 (CLB30005, CLB30016); assay type: cell-based; settings: with imipenem 1 μg/ml, 95% inhibition of bacterial growth; for Escherichia coli MITC95: NDM-1 (CLB30016)
Procedure, shortened: (§3)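 Colonies from overnight 35 °C blood-agar cultures were suspended in saline, diluted 1:100 into 1.1× CAMHB and exposed to test compound with or without imipenem at 1 μg/ml. After 22–24 h at 35 °C, absorbance was read to find the concentration restoring imipenem susceptibility.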

[4] = test system: Klebsiella pneumoniae expressing VIM-1 (IHMA599644); assay type: cell-based; settings: with imipenem 1 μg/ml, 95% inhibition of bacterial growth; for Klebsiella pneumoniae MITC95: VIM-1 (IHMA599644)
Procedure, shortened: as §3

[5] = test system: Serratia marcescens expressing IMP-1 (CL5741); assay type: cell-based; settings: with imipenem 1 μg/ml, 95% inhibition of bacterial growth; for Serratia marcescens MITC95: IMP-1 (CL5741)
Procedure, shortened: as §3

IMP-1, sequence (P52699 whole entry, looked up, species assumed): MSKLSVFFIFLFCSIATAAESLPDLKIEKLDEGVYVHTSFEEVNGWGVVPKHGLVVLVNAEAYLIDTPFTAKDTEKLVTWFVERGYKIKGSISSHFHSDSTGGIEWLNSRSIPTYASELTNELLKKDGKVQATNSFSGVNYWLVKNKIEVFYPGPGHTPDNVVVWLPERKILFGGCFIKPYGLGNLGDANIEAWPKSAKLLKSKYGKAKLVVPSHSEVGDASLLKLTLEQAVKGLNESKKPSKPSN
NDM-1, sequence (C7C422 whole entry, looked up, species assumed): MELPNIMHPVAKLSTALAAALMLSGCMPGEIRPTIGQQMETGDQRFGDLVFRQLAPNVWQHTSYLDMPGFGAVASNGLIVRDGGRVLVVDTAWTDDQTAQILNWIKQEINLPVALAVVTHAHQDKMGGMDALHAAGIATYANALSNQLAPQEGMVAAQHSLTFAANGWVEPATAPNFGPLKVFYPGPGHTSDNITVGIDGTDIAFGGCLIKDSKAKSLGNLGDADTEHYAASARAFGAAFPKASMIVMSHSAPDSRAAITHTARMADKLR

SMILES | IC50 (NDM-1) [nM] | IC50 (IMP-1) [nM] | P. aeruginosa expressing IMP-1, efflux− (MB9799) MITC95 [1] [µM] | IC50 (VIM-1) [nM] | P. aeruginosa expressing IMP-1, efflux+ (MB9798) MITC95 [2] [µM] | Efflux ratio [2] | Escherichia coli expressing NDM-1 (CLB30016) MITC95 [3] [µM] | Klebsiella pneumoniae expressing VIM-1 (IHMA599644) MITC95 [4] [µM] | Serratia marcescens expressing IMP-1 (CL5741) MITC95 [5] [µM] | Escherichia coli MITC95 [3] [µM] | Klebsiella pneumoniae MITC95 [4] [µM] | Serratia marcescens MITC95 [5] [µM]
NCCS(=O)(=O)c1ccc(-c2cccc3sc(C(N)=O)nc23)c(-c2nn[nH]n2)c1S(N)(=O)=O [Example 89, 4-(4-(2-aminoethylsulfonyl)-3-sulfamoyl-2-(2H-tetrazol-5-yl)phenyl)benzo[d]thiazole-2-carboxamide] | 0.277 | 0.601 | 1.563 | 0.152 | 3.125 | 2.00 | 1.563 | 3.125 | 1.563 |  |  | 
Nc1n[nH]c2ccc(-c3ccc(S(=O)(=O)C4CNC4)c(S(N)(=O)=O)c3-c3nnn[nH]3)cc12 [Example 264, 3-(3-amino-1H-indazol-5-yl)-6-(azetidin-3-ylsulfonyl)-2-(1H-tetrazol-5-yl) benzenesulfonamide] | 0.364 | 1.82 | 0.7813 | 0.175 | 6.25 | 8.00 |  |  |  | 3.125 | 3.125 | 1.563
NCCS(=O)(=O)c1ccc(-c2cccc3cn[nH]c23)c(-c2nnn[nH]2)c1S(N)(=O)=O.O=C(O)C(F)(F)F [Example 173, 2-((4-(1H-indazol-7-yl)-2-sulfamoyl-3-(1H-tetrazol-5-yl)phenyl)sulfonyl)ethanaminium 2,2,2-trifluoroacetate] | 0.338 | 0.16 | 0.4453 | 0.264 | 0.8906 | 2.00 | 0.25 | 0.8906 | 0.8906 |  |  | 
NCCNC(=O)c1cccc(-c2ccc(S(=O)(=O)C3CNC3)c(S(N)(=O)=O)c2-c2nn[nH]n2)c1N [Example 288, 2-amino-N-(2-aminoethyl)-4′-(azetidin-3-ylsulfonyl)-5′-sulfamoyl-6′-(2H-tetrazol-5-yl)biphenyl-3-carboxamide] | 1.67 | 9.83 | 0.7813 | 0.861 | 3.125 | 4.00 |  |  |  | 3.125 | 1.563 | 3.125
NCCS(=O)(=O)c1ccc(-c2ccnc3[nH]ccc23)c(-c2nnn[nH]2)c1S(N)(=O)=O.O=C(O)C(F)(F)F [Example 142, 2-((4-(1H-pyrrolo[2,3-b]pyridin-4-yl)-2-sulfamoyl-3-(1H-tetrazol-5-yl)phenyl)sulfonyl)ethanaminium 2,2,2-trifluoroacetate] | 0.518 | 0.517 | 0.7813 | 0.153 | 3.125 | 4.00 | 1.563 | 3.125 | 1.563 |  |  | 
